# Patent publication US20160067347A1, “APJ RECEPTOR AGONISTS AND USES THEREOF” (AMGEN INC., priority 2012, published 2016)
# *1 amine or outer side, *2 acyl side, *3 side chain or, on linkers, in order; H or OH if unused. Primed or numbered codes have the meaning given here. Where no end group is shown, it is not given here. [ ]: non-standard residue; d: D form. Atz = (S)-2-amino-3-(1H-1,2,3-triazol-4-yl)propanoyl residue, substituent (PEG) on triazole N1, O=C([C@H](Cc1cn([*:3])nn1)N[*:1])[*:2]; Oic = O=C(O)[C@@H]1C[C@@H]2CCCC[C@@H]2N1; Phe(4-Cl) = N[C@@H](Cc1ccc(Cl)cc1)C(=O)O; hArg = N=C(N)NCCCC[C@H](N)C(=O)O; Cha = N[C@@H](CC1CCCCC1)C(=O)O; 20K‑mPEG = 20 kDa methoxy-PEG; 40K‑mPEG = 40 kDa methoxy-PEG; pGlu = O=C1CC[C@@H](C(=O)O)N1; PEG10′ = not defined here; Nle = CCCC[C@H](N)C(=O)O; Mpa = O=C(O)CCS
# T1: human APJ (Homo sapiens, UniProt P35414)
# T1 construct: expressed in transfected cells
# T1 sequence (P35414 1-380): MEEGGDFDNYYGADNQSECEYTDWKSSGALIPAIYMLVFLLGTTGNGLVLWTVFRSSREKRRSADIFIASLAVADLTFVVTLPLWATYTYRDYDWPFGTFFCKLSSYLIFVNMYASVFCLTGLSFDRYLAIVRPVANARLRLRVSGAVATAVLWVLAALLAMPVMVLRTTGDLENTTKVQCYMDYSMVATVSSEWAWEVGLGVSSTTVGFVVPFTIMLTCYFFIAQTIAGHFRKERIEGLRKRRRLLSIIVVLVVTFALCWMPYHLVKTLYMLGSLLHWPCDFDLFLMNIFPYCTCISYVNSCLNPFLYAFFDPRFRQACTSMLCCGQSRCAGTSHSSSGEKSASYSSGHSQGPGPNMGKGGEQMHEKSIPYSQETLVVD
# T2: rat APJ receptor (Rattus norvegicus, UniProt Q9JHG3)
# T2 construct: expressed in transfected cells; CHO is named only for the cAMP assay
# T2 sequence (Q9JHG3 1-377): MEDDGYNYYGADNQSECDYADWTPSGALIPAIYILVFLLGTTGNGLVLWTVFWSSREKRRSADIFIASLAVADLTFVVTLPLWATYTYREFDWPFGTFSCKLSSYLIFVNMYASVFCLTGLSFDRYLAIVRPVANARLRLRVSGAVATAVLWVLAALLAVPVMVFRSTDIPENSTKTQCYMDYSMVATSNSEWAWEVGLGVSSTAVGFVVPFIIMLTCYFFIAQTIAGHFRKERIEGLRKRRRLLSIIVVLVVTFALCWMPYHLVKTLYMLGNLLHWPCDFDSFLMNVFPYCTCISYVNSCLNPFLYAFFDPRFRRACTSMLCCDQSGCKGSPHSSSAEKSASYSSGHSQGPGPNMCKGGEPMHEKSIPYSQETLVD
# T3: APJ receptor (Rattus norvegicus, UniProt Q9JHG3)
# T3 construct: expressed in transfected cells; CHO is named only for the cAMP assay
# T3 sequence (Q9JHG3 whole entry, looked up): T2 sequence (Q9JHG3 1-377)
# T4: rat APJ receptor (rat, UniProt Q9JHG3 1-377)
# T4 sequence (looked up): T2 sequence (Q9JHG3 1-377)
# What was measured:
# human APJ = target: T1, human APJ; assay: cAMP assay, stable CHO cell line expressing human APJ; assay type: cell-based; details: FIG. 5; cAMP seen with either human or rat APJ stable cell lines
# Procedure: Stable CHO cell lines expressing APJ were used for cAMP assays. The cells were incubated with stimulation buffer containing HANK's buffer, forskolin and 0.5 mM IBMX in the absence or presence of various concentrations' of peptides at 37° C. for 45 min. The cAMP level was determined using a cyclic AMP kit (DiscoverX) according to the manufacturer's instructions.
# rat APJ receptor [1] = target: T2, rat APJ receptor; assay: [35S]GTPγS assay, membranes from stable cell lines, rat APJ; assay type: biochemical; details: FIG. 10; effect of PEG size (20 kDa vs 40 kDa)
# Procedure: To assay for GTP, membranes were prepared from stable cell lines and used to determine the efficacy/potency of the modified peptides. The optimal experimental conditions for the concentrations of GDP, MgCl2 and NaCl in the assay buffer were initially determined. The membranes were incubated with modified peptides in the assay buffer. The reaction was initiated by addition of [^35S] GTPγS in the absence or presence of peptides and incubated at room temperature for 90 min. […] Bound [^35S] GTPγS was separated from free radiolabel by filtration. The filter bound radioactivity was determined by liquid scintillation counting.
# A series of PEGylated peptides were prepared and screened in vitro to explore the effects of PEG size and peptide valency on potency and efficacy in the GTPγS assay. In the assay 20 kDA and 40 kDA PEG were compared (FIG. 10).
# Additionally mono- and multivalent bis, and tetrakis-peptide conjugated PEGS were prepared to explore peptide valency. […]
# [2] = tested on: isolated Langendorff rat heart; assay: Langendorff isolated rat heart, hemodynamic cardiac function; details: control rats, FIGS. 7 and 8
# Text: To assess the hemodynamic cardiac function of the peptides a Langendorff isolated heart system was used. The isolated heart from rat provides broad spectrum of measurements that can include biochemical, metabolic, morphological and physiological indices. The limitations/advantages of the method include absence of neurohormonal influences, neural regulation and high coronary flows. Such limitations, however, are offset by the ability to study direct cardiac effects without systemic circulation and a host of peripheral interactions.
# The reproducibility and accuracy of measurements and relatively low costs over in vivo studies for profiling drugs outweigh any limitations of this method. Therefore, this method provides excellent dose-response relationship and sheds critical insight into the pharmacological and physiological properties of the molecules of interest.
# The animals were anesthetized upon administration of 50-100 mg/kg dose of sodium pentobarbital for rat via the intraperitoneal route. The heart was excised and gently cradled between fingers to avoid injury followed by lifting slightly before incising the aorta, vena cava and pulmonary vessels Immediately after excision of the heart with aorta, the heart was mounted onto the cannula in the Langendorff apparatus via the aorta. The heart was perfused with modified oxygenated Krebs-Henseleit buffer pH7.5 and equilibrated with 95% O2/5% CO2 at 37° C. The perfusion was performed at a constant flow of 10 ml/min and paced at 300 bpm. The pressure was measured through a pressure sensing balloon catheter inserted in the LV cavity. The intrinsic inotropy (force of muscle contraction) and lusitropy (cardiac relaxation) effects of the heart were assessed by dp/dtmax and dp/dtmin.
# These figures illustrate improvement in both systolic and diastolic function of normal hearts with peptides of SEQ ID NOs: 23 and 24.
# APJ receptor [3] = target: T3, APJ receptor; assay: EC50
# Text: Table printed on a drawing sheet, FIGURE 11
# The patent's description of the figure: FIG. 11. Effects of peptide valency on in vitro activity.
# First copying reader's note: The sheet prints no unit for the EC50 column; the plot under the table ([35S]GTPγS binding, rAPJ stable cell line) is not copied.
# [4] = In vitro plasma stability of apelin peptides (Table 15; plasma species not given); assay type: in vitro ADME; details: 5 μM in plasma, 37° C.
# Text: (metabolite data not shown).
# [5] = background statement; cited from earlier work
# in vitro = details: rat, plasma
# Procedure: Apelin peptides were spiked into freshly prepared mouse, rat, dog and human EDTA plasma to a final concentration of 5 μM. The plasma samples were then incubated at 37° C. over a period of 4 hr. Up to 8 time points were sampled to facilitate estimation of in vitro half life in plasma matrices. In a typical experiment, aliquot of 100 μL of plasma sample was taken from the incubation vial, followed by addition of 300 μL of MeOH containing internal standard. The quenched sample was centrifuged at 5500 g for 15 min after 15 min vortex in room temperature. The supernatant was then analyzed by high resolution LC-MS.
# FIGURE 4B = assay: FIGURE 4B
# Text: Table printed on a drawing sheet, FIGURE 4B
# Section band inside the table: Peptides with triazole linker and 20 kDa PEG modification
# The patent's description of the figure: FIGS. 4A-B. In vitro stability of APJ agonists in plasma.
# First reader's note: Rows 3 and 9 of the grid are section headings spanning all columns (linker type of the 20 kDa PEGylated peptides).
# [6] = tested on: healthy rats and rats having MI-induced heart failure; assay: In vivo cardiac hemodynamics (Millar PV loop, femoral arterial pressure) in healthy and MI-induced heart failure rats; design: species or system rat; details: for mean dp/dt max increase: intravenous infusion, FIG. 9
# Procedure: The cardiac function of healthy rats and the rats having MI (myocardial infarction)-induced heart failure was measured via the Millar PV loop system and femoral arterial pressure catheter were examined.
# Male Lewis rats at 2-3 months of age were used for the studies. MI was induced by ligation of the left anterior descending coronary artery (LAD). Echocardiography was performed at 1 week post-MI for animal enrollment. If ejection fraction (EF) was more than 40% and no infarct was identified from echocardiography images, these animals were excluded from the study. The Millar PV loop catheter was inserted into the right common carotid artery and then advanced to the left ventricle (LV) for cardiovascular hemodynamic assessment. The arterial pressure catheter was inserted into a femoral artery for peripheral blood pressure monitoring.
# Experiments were performed either on six-seven weeks post-MI rat, or healthy rats. […] Test articles were given intravenously via jugular vein, and 3 sets of peptide doses were used in the experiment. […] At the end of the experiment, the infarct size was verified by gross morphology if MI rats were used in the study.
# Animals in MI groups had very similar infarct size (38-39% of LV) among the groups (results not shown).
# isolated cardiomyocyctes = details: isolated cardiomyocytes; Barnes et al.; cited from earlier work
# APJ receptor [7] = assay: EC50 IP (µM)
# Text: Table printed on a drawing sheet, FIGURE 3B
# Head of the field: EC50 IP (µM)
# Section band inside the table: Peptides with 525 Da PEG modification
# The patent's description of the figure: FIGS. 3A-C.
# First copying reader's note: Row 2 is a section heading spanning all columns; blanks inside names and sequences only mark line breaks within the printed cell.
# Where the first naming reader finds the target: passage: An “APJ agonist” should be understood to refer to a molecule that is able to activate the APJ receptor.
# rat APJ receptor [8] = target: T4, rat APJ receptor; assay: cell-based or functional assay
# [9] = dose ranges from 5.5 to 88 μg/kg
molecule,measurement,setting,value
3-((2-(3-(mPEG(20kDa))propylamino)-2-oxoethyl)thio)propanamide-[hArg68;Cha69;Oic74;Nle75;4-Cl-Phe77]Apelin-17(61-77) [SEQ ID NO: 24],agonist activity relative to pyr apelin-13 (SEQ ID NO: 128),human APJ,potent and act as a full agonist
same,EC50,rat APJ receptor [1],0.252 nM
same,dp/dtmax,[2],dose dependent increase
same,dp/dtmin,[2],decrease
same,systolic pressure,[2],increases
SEQ ID NO: 130: 20 kDa PEG-bis(Atz-KFRRQRP[hArg][Cha]SHKG[Oic][Nle]P[4-Cl—F]) (KFRRQRP[hArg][Cha]SHKG[Oic][Nle]P[Phe(4-Cl)]; not fully specified (N-terminus); also: 20 kDa PEG carries two peptide copies),EC50,APJ receptor [3],0.407 nM
SEQ ID NO: 131: 20 kDa PEG-tetrakis(Atz-KFRRQRP[hArg][Cha]SHKG[Oic][Nle]P[4-Cl—F]) (KFRRQRP[hArg][Cha]SHKG[Oic][Nle]P[Phe(4-Cl)]; not fully specified (N-terminus); also: 20 kDa PEG carries four peptide copies),EC50,APJ receptor [3],0.794 nM
CSCC[C@H](NC(=O)[C@@H]1CCCN1C(=O)CNC(=O)[C@H](CCCCN)NC(=O)[C@H](Cc1cnc[nH]1)NC(=O)[C@H](CO)NC(=O)[C@H](CC(C)C)NC(=O)[C@H](CCCNC(=N)N)NC(=O)[C@@H]1CCCN1C(=O)[C@H](CCCNC(=N)N)NC(=O)[C@@H](N)CCC(N)=O)C(=O)N1CCC[C@H]1C(=O)N[C@@H](Cc1ccccc1)C(=O)O [Apelin-13],"in vitro plasma stability, % at 15 minutes",[4],0.1%
same,plasma half-life,[5],< 5 min
same,"remaining at 0.25 h, 5 μM",in vitro,0.1%
"3-(1-(2-(mPEG(20kDa))ethyl)-1H-1,2,3-triazol-4-yl)alanine-[hArg68;Cha69;Oic74;Nle75;4-Cl-F77]Apelin-17(61-77) [SEQ ID NO: 25]",agonist activity relative to pyr apelin-13 (SEQ ID NO: 128),human APJ,potent and act as a full agonist
Atz(20K-mPEG)-LRP[hArg][Cha]SHKG[Oic][Nle]P[4-Cl-F] [compound 50],"in vitro plasma stability (t1/2, min) | HUMAN",FIGURE 4B,264 min
same,"in vitro plasma stability (t1/2, min) | MOUSE",FIGURE 4B,64 min
same,"in vitro plasma stability (t1/2, min) | RAT",FIGURE 4B,256 min
{Thiopropionyl(20K-mPEG)}LLRP[hArg][Cha]SHKG[Oic][Nle]P[4-Cl—F]{FreeAcid} ({mPEG 20 kDa}-[Mpa]LLRP[hArg][Cha]SHKG[Oic][Nle]P[Phe(4-Cl)]-OH) [SEQ ID NO: 124],agonist activity relative to pyr apelin-13 (SEQ ID NO: 128),human APJ,potent and act as a full agonist
"[PE65;hArg68;Cha69;3-(1-(2-aminoethoxy(PEG9)ethyl)-1H-1,2,3-triazol-4-yl)Ala70;Oic74;Nle75;4-Cl-F77]Apelin-13(65-77) ([pGlu]RP[hArg][Cha][Atz](PEG10′)HKG[Oic][Nle]P[Phe(4-Cl)]) [SEQ ID NO: 23]",dp/dtmax,[2],dose dependent increase
same,dp/dtmin,[2],decrease
same,systolic pressure,[2],increases
same,Heart rate (HR) increase,"[6]; MI rats, intravenous infusion of 88 μg/kg accumulative dose",up to 10.6%
same,mean dp/dt max increase,[6]; MI rats,24.5%
same,other cardiac hemodynamic changes,[6]; [9],No other cardiac hemodynamic changes were observed
same,peripheral vascular resistant measurement such as mean arterial pressure,[6]; [9],No significant changes
same,mean dp/dt max increase,[6]; healthy rats,32%
apelin,increase in sarcomere shortening,isolated cardiomyocyctes,up to 140%
{Hydrogen}[PE]RP[hArg][Cha][Pra(NPeg9) ]HKG[Oic][Nle][4-Cl-F]{FreeAcid},EC50,APJ receptor [7],133 nM
{20K‑mPEG-Thiopropionyl}-KFRRQRP[hArg][Cha]SHKG[Oic][Nle]P[Phe(4-Cl)] [Thiopropionyl(20K-mPEG)-KFRRQRP[hArg][Cha]SHKG[Oic][Nle]P[4-Cl-F]],EC50 (GTPγS assay),rat APJ receptor [8],0.252 nM
{40K‑mPEG-Thiopropionyl}-KFRRQRP[hArg][Cha]SHKG[Oic][Nle]P[Phe(4-Cl)]-OH [{Thiopropionyl(40K-mPEG)}KFRRQRP[hArg][Cha]SHKG[Oic][Nle]P[4-Cl-F]{FreeAcid}],EC50 (GTPγS assay),rat APJ receptor [8],1.37 nM
same,"potency (GTPγS assay), fold reduction relative to 20 kDA (SEQ ID NO: 24)",rat APJ receptor [8],5 fold
